Measured values: patent US8133903B2, “Methods of use of inhibitors of phosphodiesterases and modulators of nitric oxide, reactive oxygen species, and metalloproteinases in the treatment of peyronie's disease, arteriosclerosis and other fibrotic diseases” (Los Angeles Biomedical Research Institute at Harbor—UCLA …, priority 2003, dated 2012)

What was measured:
Format in all cases: in vivo
[1] = tested on: TGF-β1-induced fibrotic plaque in the rat tunica albuginea; assay: TGF-β1 rat model of Peyronie's disease, plaque and collagen deposition by Masson staining with QIA; conditions: long-term oral L-NIL, TGF-β1 injected rat
Description: TGF-β1 rat model. Male Fisher 344 rats, 9-11 month old purchased from the NIH/NIA colony (Harlan Sprague-Dawley, Inc., San Diego, Calif.) and maintained under controlled temperature and lighting, were anesthetized and injected in the penile TA at the middle of the penis with either vehicle only (saline, group 1) or 0.5 μg recombinant human TGF-β1 (Biotech Diagnostic, Laguna Niguel, Calif., groups 2-5) as disclosed (Ferrini et al., 2002; Vernet et al., 2002). After the injection, groups 1 and 2 were given drinking water while the other groups received water with L-arginine (2.25 g/kg/day, group 3) (Moody et al., 1997), or sildenafil (10 mg/kg/day, group 4) or pentoxifylline (10 mg/kg/day, group 5). Forty-five days later, or as indicated, animals were sacrificed and perfused through the left ventricle with saline followed by 4% formalin ((Ferrini et al., 2002; Vernet et al., 2002). After the penises were excised, the penile skin was denuded by removing the glans and adhering non-crural tissue. The penile shaft was separated from the crura and 2-3 mm transverse slices were cut around the site of the saline or TGF-β1 injection. All tissues were post-fixed overnight in 4% formalin, washed in PBS and stored at 4° C.
In the case of tissue sections, the determinations of the collagen/smooth muscle ratio were carried out with Masson trichrome (Ferrini et al., 2002; Davila et al., 2003b) on adjacent 5 μm paraffin-embedded cross-sections from the human normal tunical or plaque tissues, or from a 2 mm area around the site of injection in the rat saline- and TGF-β1-injected shaft tissues. Other distal sections were obtained along the rat penile shaft.
The quantitation of the staining obtained by either histochemical or immunohisto/cytochemical techniques was performed by computerized densitometry using the ImagePro 4.01 program (Media Cybernetics, Silver Spring, Md.), coupled to an Olympus BHS microscope equipped with a Spot RT digital camera or VCC video camera (Wang et al., 2001; Ferrini et al., 2001a, 2001b; Davila et al., 2003b).

[2] = tested on: collagen I promoter; assay: Collagen I promoter reporter plasmid (β-galactosidase, luminometry) injected into the rat PD-like plaque; conditions: L-NIL treated TGF-β1 rat, vs control TA
Excerpt: The effect of L-NIL in increasing collagen in the TA of the TGF-β1 rat model may be due to an increase in collagen synthesis, a decrease in its normal breakdown, or both. To determine whether the larger PD plaque in the L-NIL treated rat is due, at least in part, to an increase in collagen I synthesis (the most prevalent collagen protein in the TA), and not simply to the inhibition of collagenolysis by the MMPs, we injected a cDNA plasmid construct of the collagen I promoter driving the expression of a reporter gene (Magee et al., 2002a) into the site of the original TGF-β1 or saline injection, 10 days prior to sacrifice and 35 days after the TGF-β1 injection. This plasmid is an indicator of collagen I transcriptional activity within the rat PD plaque.

[3] = tested on: TGF-β1-induced fibrotic plaque in the rat tunica albuginea; assay: Nitrotyrosine and ROS marker (heme-oxygenase I) detection in the TA of the TGF-β1 rat model
Description: (§1) The determinations of iNOS, nitrotyrosine, heme-oxygenase I, PAI-I (Davila et al., 2003b), manganese superoxide dismutase (MnSOD), and CuZn SOD (Cu/Zn SOD) (Martin et al., 1994) were carried out on 5 μm paraffin-embedded adjacent tissue sections, that. were quenched for endogenous peroxidase activity after deparaffinization and rehydration. Sections were blocked with normal goat serum, and incubated with polyclonal IgG antibodies against mouse iNOS (1:500) (Transduction Laboratories, Lexington, KT), nitrotyrosine (1:100) (Upstate, Lake Placid, N.Y.), Mn SOD and Cu/Zn SOD (Oxygen, Portland, Oreg.) (1:800 and 1:500 respectively), heme oxygenase I (Stressgen, San Diego, Calif.), or PAI-1 (Abcam Ltd, Cambridge, UK). For negative controls the first antibodies were replaced by IgG isotype. The detection was based on a secondary anti-rabbit biotinylated antibody (1:200) for iNOS and nytrotyrosine (Calbiochem, La Jolla, Calif.), or anti-sheep biotinylated antibody (1:200) for Cu/Zn and Mn SOD, followed by the ABC complex (1:100) (Calbiochem) and 3,3′ diaminobenzidine (spelling) (DAB) (Sigma, St Louis Mo.). Sections were counterstained with hematoxylin.
The studies with L-arginine detailed in Example 1 show modulation of the size of the PD plaque by NO. […]

[4] = tested on: arterial media of aged Brown Norway rats; assay: Aged rat arterial tree model, Masson staining (SMC/collagen), intima/media thickness and lumen diameter; conditions: for intima media thickness / lumen diameter: OLD + L-NIL
Description: (§2) Arterial Tree Rodent Model. Young (3-month) and aged (22-24 month) male Brown Norway rats were obtained from the NIH/NIA colony (Harlan Sprague-Dawley, Inc., San Diego, Calif.), and maintained under controlled temperature and lighting. One half of the aged animals were treated for 3 weeks with L-NIL at 0.1 g/l in the drinking water, while the rest of the animals received plain drinking water. Animals were anesthetized, pretreated with heparin, and perfused through the left ventricle with saline followed by 4% formalin. The abdominal aorta, brachial and femoral neurovascular bundles as well as the penis, denuded of its skin, were removed and post-fixed overnight in 4% formalin, and washed and stored in PBS at 4 C until paraffin embedding.
SMC and collagen fibers within the corporal tissue and vascular tree were estimated by Masson trichromic staining (Sigma Diagnostic, St. Louis, Mo.) (Ferrini et al., 2002; Vernet et al., 2002; Davila et al, […]) in sections adjacent to those used for immunohistochemical staining, followed by image analysis to measure the ratio between SMC (red) and collagen fibers (blue). The results were expressed as red/blue ratios per area (see below). In the arterial tree, the intima/media thickness (IMT), and the diameter of the lumen were also measured.
(§3) For iNOS, nitroyrosine, heme-oxygenase, PAI-1, MnSOD and Cu/Zn SOD determination, at least 6 sections per specimen were analyzed. Each slide assayed had its corresponding negative control. In certain cases, the number of immuno-positive cells was determined as a percentage of the total counterstained nuclei in a computerized grid. In the Masson staining, the ratio between SMC (red) and collagen fibers (blue) was obtained and expressed per area.

[5] = tested on: arterial media of aged Brown Norway rats; assay: Aged rat arterial tree model, immunohistochemistry for iNOS, nitrotyrosine, Cu/Zn SOD, heme oxygenase I, PAI
Description: as §2, §1, §3

[6] = tested on: SMC in the media of the penile resistance arteries; assay: Aged rat arterial tree model, TUNEL apoptosis in the media of the penile arteries; conditions: aged rats, L-NIL treatment
Description: as §2, §3

With `CC(=N)NCCCC[C@H](N)C(=O)O` [L-NIL, L-iminoethyl-L-lysine] the “expansion and thickening of the TA due to collagen fiber deposition” value [1] was “remarkable expansion and thickening of the TA”, the “expression of the reporter β-galactosidase driven by the collagen I promoter (luminometry in tissue extracts)” value [2] was “considerably intensified” and the ROS levels ([3]; iNOS activity blocked with L-NIL in the TGF-β1 rat model) was “considerable elevation”. The “peroxynitrite as indicated by nitrotyrosine formation in the TA” value ([3]; long-term oral L-NIL, TGF-β1 injected rat) was “considerable increase”, the “collagen fibers within the media of the aorta and the dorsal penile artery” value ([4]; aged rats, L-NIL for 3 weeks) was “further increase in the collagen fibers” and the “amount of collagen within the media (SMC/collagen ratio, image analysis)” value ([4]; aged rats, L-NIL, aorta, femoral, dorsal, with the exception of the bulbourethral artery) was “further exacerbation in the amount of collagen”. It also gave an intima media thickness ([4]; aorta) of 85.2 ± 6.6 μm, an intima media thickness ([4]; bulbo urethral) of 9.9 ± 0.7 μm and a lumen diameter ([4]; bulbo urethral) of 47.3 ± 6.6 μm. It also gave an intima media thickness ([4]; femoral) of 51.8 ± 4.6 μm, an intima media thickness ([4]; penile dorsal) of 23.6 ± 3.3 μm and a lumen diameter ([4]; penile dorsal) of 105.5 ± 16. μm. For the same compound, the “effect on PAI expression in the aged media (quantitative image analysis)” value ([5]; L-NIL) was “negligible”, the “expression of heme oxygenase I in the penile dorsal artery” value ([5]; L-NIL) was “did not induce a further significant change” and the “iNOS expression in the arterial media” value ([5]; L-NIL) was “reduction in iNOS expression”. The “peroxynitrite formation (nitrotyrosine) in the arterial media” value ([5]; L-NIL) was “reduction in peroxynitrite formation”, the “increase of Cu/Zn SOD (indirect marker of ROS), image analysis” value ([5]; L-NIL blockade of iNOS activity) was 40 to 50% and the “apoptotic index, dorsal and bulbourethral penile arteries” value [6] was “reduction”.
